Test results reported in patent US20240082218A1, “PHARMACEUTICAL COMBINATIONS COMPRISING A KRAS G12C INHIBITOR AND USES OF A KRAS G12C INHIBITOR FOR THE TREATMENT OF CANCERS” (priority 2020, published 2024).

Tested on: Lu99 KRAS G12C lung carcinoma xenograft
Assay: Anti-tumor efficacy in Lu99 KRAS G12C lung carcinoma xenografts
Format: in vivo, mice
Details: Lu99, oral, Compound A 100 mg/kg once daily, alone or in combination
Experimental: It carries the allele NM_033360.4(KRAS):c.34G>T and consequently a heterozygous KRAS Gly12Cys mutation. Lu99 cells were grown in sterile conditions in a 37° C. incubator with 5% CO2 for two weeks. The cells were kept in RPMI media supplemented with 10% FCS, 2 mM L-Glutamin, 1 mM sodium pyruvate and 10 mM HEPES, and split 1:6 every 3 days. […] On the day of injection, cells were harvested after 8 passages in total, including passages from the vendor. Cells were resuspended in 50% HBSS and 50% Matrigel at a final concentration of 10·10^6 cells/ml.
Experiments were performed with female nude mice (Charles River Laboratories, Crl:NU(NCr)-Foxn1nu Homozygous). […] Animals were allowed to accommodate at least for 7 days.
Mice were injected subcutaneously with Lu99 human NSCLC cells to induce xenograft tumors and randomized into treatment groups when the mean tumor volume reached ˜250 mm^3.
The control group received a solution of 0.1% Tween 80 (Fisher Scientific AG #BP338-500) and 0.5% Methylcellulose in water.
The treatment period was between 9 to 28 days, depending on the groups.
Tumor growth was monitored regularly post cell inoculation and animals were randomized into treatment groups (n=6) when TV reached appropriate volume. During the treatment period, xenograft tumor sizes were measured about 2-3 times per week manually with calipers, and the TV was estimated in mm^3 using the formula: Length×Width^2/2.
Mice were injected subcutaneously with Lu99 human NSCLC cells to induce xenograft tumors and randomized into treatment groups when the mean tumor volume reached ˜200 mm^3. […] The treatment period was between 14 to 35 days, depending on the groups. Animals treated with vehicle were terminated at day 14. […] Tumor volumes were recorded and are represented as mean±SEM (standard error of the mean) for each group. Anti-tumor response of treatment groups vs. vehicle group was calculated at day 14 as % T/C or % regression.

## C[C@@H]1OCC2(CCN(c3cnc(Sc4ccnc(N)c4Cl)c(N)n3)CC2)[C@@H]1N [TNO155, (3S,4S)-8-(6-amino-5-((2-amino-3-chloropyridin-4-yl)thio)pyrazin-2-yl)-3-methyl-2-oxa-8-azaspiro[4.5]decan-4-amine]
TNO155 10 mg/kg twice daily continuous
  anti-tumor response (Example 7): slight tumor growth delay
TNO155 10 mg/kg twice daily, up to 28 days
  anti-tumor response (Example 6): moderate anti-tumor response
